In patent publication US12416052B2, “Capturing, concentrating, and detecting microbes in a sample using magnetic ionic liquids and recombinase polymerase amplification” (priority 2019, dated 2025):

Key:
Salmonella typhimurium [1] = settings: thermal (120° C.-150° C.) disintegration; cited from earlier work
E. coli = settings: thermal (120° C.-150° C.) disintegration; cited from earlier work
[2] = tested on: Salmonella enterica subsp. enterica ser. Typhimurium ATCC 14028; type: cell-based; settings: Example 2; 2×T, 1×NaCl back-extraction medium
Protocol: A universal schematic for MIL-based cell extraction is depicted in FIG. 7B. A 1 mL volume of diluted cell suspension was added to a flat-bottomed 4-mL screw cap glass vial. Fifteen microliters of either the Ni(II) or Dy(III) MIL was added and dispersed into microdroplets by vortex agitation for 30 s. The aqueous phase was decanted following dispersive extraction, and the MIL was subjected to a brief wash step using 1 mL of nuclease-free water (Integrated DNA Technologies, Coralville, IA, USA) to ensure adequate removal of loosely or incidentally bound cells. After washing, release of viable cells from the MIL extraction phase was carried out using a “back-extraction” step accomplished through addition of 1 mL of an ionically-rich nutritive medium comprised of 20 g L^−1 tryptone and 10 g L^−1 NaCl, followed by a 120 s vortex step. After back-extraction, aliquots of the cell-enriched back-extraction medium were enumerated using the track dilution method using 100×100 mm square, gridded TSA, BSA, CA or VRBGA plates.
Following back-extraction, aliquots of the cell-enriched back-extraction medium were serially diluted in 0.1% peptone water and a 10 μL aliquot of each dilution was applied to a separate lane on square plates containing an appropriate agar medium. The plates were then tilted at an approximately 80° angle for 15 min to allow the droplets to travel toward the opposite end of the plate. The plates were incubated for 24 h at 37° C. (TSA, VRBGA), for 48 h at 37° C. (BSA) or for 24 h at 37° C. (CA). Colonies were counted and colony forming units (CFU) were determined. The enrichment factor (EF) for MIL-based extraction was calculated using Equation 1, where CMIL represents the concentration of bacteria in suspension following extraction using the MIL and CS is the initial concentration of bacteria in the sample.
Because culture-based methods depend on sample preparation steps that preserve bacterial viability, potential deleterious cytotoxic effects imparted by MIL extractants must be considered. To begin our further study of MIL-bacterial interactions, we selected S. typhimurium ATCC 14028 as a model gram-negative pathogen and the Ni(II) MIL as extractant.

Density of MIL = type: physicochemical
[3] = tested on: S. typhimurium ATCC 14028; experiment: Exposure of cells and plating on non-selective (TSA) and selective (BSA) agar (viability, injury, toxicity); type: cell-based, Salmonella enterica
Protocol: To examine whether exposure time to the Ni(II) MIL affected cell viability, MIL-based whole-cell extraction was performed using the Ni(II) MIL, and cell-enriched back-extraction media were enumerated at 0, 5, 10 and 15 min on both TSA and BSA. To evaluate toxicity of the [EMIM^+][SCN^−] IL, one milliliter of diluted S. typhimurium ATCC 14028 cell suspension was added to a 4-mL screw cap glass vial. A 5% (vol/vol) or 50% (vol/vol) aqueous solution of 1-ethyl-3-methylimidazolium thiocyanate (“[EMIM^+][SCN^−]”) (IoLiTec, Tuscaloosa, AL, USA) was added and mixed by vortexing for 30 s. Aliquots were enumerated at 0, 5, 10 and 15 min using TSA and BSA.
One milliliter of diluted S. typhimurium ATCC 14028 cell suspension was added to a 4-mL screw cap glass vial. Fifteen microliters of either the Dy(III) MIL or 2-10 μL of 100 mM DyCh solution or 10 mg of the ammonium tetra(hexafluoroaceto)dysprosium salt (15) ([NH4^+][Dy(hfacac)4^−]) (“Dy(III) ammonium salt”) was added and dispersed by vortex agitation for 30 s. Aliquots of the Dy(III) MIL- or Dy(III) ammonium salt-exposed cell suspension were enumerated using square TSA or BSA plates (BD).
Because culture-based methods depend on sample preparation steps that preserve bacterial viability, potential deleterious cytotoxic effects imparted by MIL extractants must be considered. To begin our further study of MIL-bacterial interactions, we selected S. typhimurium ATCC 14028 as a model gram-negative pathogen and the Ni(II) MIL as extractant. Briefly, a 1 mL aliquot of TSB was inoculated with 1×10^5 CFU mL^−1 of bacteria and spiked with 15 μL of the Ni(II) MIL, and the general schematic for MIL-based extraction and recovery followed as shown in FIG. 7B. After extraction, 10 μL aliquots of the back-extraction solution were enumerated at 0, 5, 10 and 15 min using TSA and BSA. Average CFU counts were compared to a standard that was not exposed to the Ni(II) MIL. […] To better understand the data in FIG. 8, statistical analyses of Ni(II) MIL capture precision and CFU count variation as a function of MIL exposure time were performed. Variation in MIL capture may stem from inherent randomness of MIL dispersion and coalescence behaviors.
The effects of 5% or 50% (vol/vol) aqueous solutions of the [EMIM^+][SCN^−] IL on the viability of the cells were also evaluated. Average CFU counts were compared to a standard not exposed to [EMIM^+][SCN^−]. In our hands, when S. typhimurium was exposed to 50% (vol/vol) solutions of [EMIM^+][SCN^−], no recovery was observed on either TSA or BSA after 5 min of exposure.
To gain further insight into this phenomenon, the effect of free elemental dysprosium was evaluated by subjecting the cells to 0.1 mM and 1.0 mM solutions of DyCl3. The cells were exposed to the metal salt solutions for 30 s and subsequently plated on selective and non-selective media.
While the metal did show cytotoxicity, it cannot be completely responsible for the Dy(III) MIL's effect on the cells, as no flocculation was seen and growth was still observed. Since both the Ni(II) and the Dy(III) MILs contain identical cations ([P6,6,6,14^+]), the role of the anion structure was evaluated. The anion of the Dy(III) MIL contains one additional hexafluoroacetylacetonate ligand than the Ni(II) MIL (FIG. 7), making the coordination geometry of the two complexes different. To test the effects of the anion structure, cells were subjected to 10 mg of the Dy(III) ammonium salt. After a 30 second vortex, similar flocculation was observed as when the cells were exposed to the native Dy(III) MIL.

Salmonella typhimurium [4] = settings: plated to a selective agar; cited from earlier work

1-butyl-1-methylpyrrolidinium bis(trifluoromethylsulfonyl)imide [[BMPyr^+][Ntf2^−]]
cell disruption (Salmonella typhimurium [1]): completely disrupted
cell disruption (E. coli): completely disrupted

CCCCCCCCCCCCCC[P+](CCCCCC)(CCCCCC)CCCCCC.O=C([CH-]C(=O)C(F)(F)F)C(F)(F)F.O=C([CH-]C(=O)C(F)(F)F)C(F)(F)F.O=C([CH-]C(=O)C(F)(F)F)C(F)(F)F.[Co+2] [Co(II) MIL]
enrichment factors [2]: approximately 12
density (Density of MIL): ~1.3 g/mL

CCCCCCCCCCCCCC[P+](CCCCCC)(CCCCCC)CCCCCC.O=C([CH-]C(=O)C(F)(F)F)C(F)(F)F.O=C([CH-]C(=O)C(F)(F)F)C(F)(F)F.O=C([CH-]C(=O)C(F)(F)F)C(F)(F)F.O=C([CH-]C(=O)C(F)(F)F)C(F)(F)F.[Dy+3] [Dy(III) MIL, [P6,6,6,14^+][Dy(III) (hfacac)4^−]]
flocculation and growth after plating ([3]; 15 μL added to cell suspension, 30 s vortex): extensive flocculation and no growth after plating

O=C([CH-]C(=O)C(F)(F)F)C(F)(F)F.O=C([CH-]C(=O)C(F)(F)F)C(F)(F)F.O=C([CH-]C(=O)C(F)(F)F)C(F)(F)F.O=C([CH-]C(=O)C(F)(F)F)C(F)(F)F.[Dy+3].[NH4+] [Dy(III) ammonium salt, ammonium tetra(hexafluoroaceto)dysprosium salt, reference compound]
growth on TSA or BSA ([3]; 10 mg, 30 second vortex, 24 h incubation): no growth was seen on either TSA or BSA

[Cl][Dy]([Cl])[Cl] [DyCl3, reference compound]
viable counts on TSA and BSA ([3]; 0.1 mM and 1.0 mM solutions, 30 s exposure): substantially lower counts were observed on BSA than TSA

CCn1cc[n+](C)c1.N#C[S-] [[EMIM^+][SCN^−], 1-ethyl-3-methylimidazolium thiocyanate, reference compound]
recovery on TSA or BSA ([3]; 50% (vol/vol) solution, after 5 min of exposure): no recovery
recovery on TSA or BSA ([3]; exposed as originally described for IL-based extraction from foods (Mester et al., 2010)): no recovery
inoculated S. typhimurium recovered after IL-mediated matrix lysis (Salmonella typhimurium [4]): 34-45%
